Like-named read-outs stand apart in the source and are kept apart here.
Molecular target: Human Factor D (Homo sapiens (Human), UniProt P00746)
Assay: Human Factor D Assay
Assay type: biochemical
Outline: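 Thioesterase activity monitored with Z-L-Lys-SBzl plus Ellman's reagent (DTNB), each 100 μM final, after 5 min room-temperature compound preincubation of 80 nM human serum Factor D in pH 7.5 Tris (50 mM)/1M NaCl.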

[1] = Human Factor D 80 nM, substrate Z-L-Lys-SBzl, read-out: IC50
[2] = Human Factor D assay of Example 8, Table 2, read-out: IC50
[3] = Human Factor D, Table 3, read-out: IC50
[4] = Table 3, Human Factor D 80 nM, substrate Z-L-Lys-SBzl, read-out: IC50 (Stars)

Chain of Human Factor D (P00746 26-253): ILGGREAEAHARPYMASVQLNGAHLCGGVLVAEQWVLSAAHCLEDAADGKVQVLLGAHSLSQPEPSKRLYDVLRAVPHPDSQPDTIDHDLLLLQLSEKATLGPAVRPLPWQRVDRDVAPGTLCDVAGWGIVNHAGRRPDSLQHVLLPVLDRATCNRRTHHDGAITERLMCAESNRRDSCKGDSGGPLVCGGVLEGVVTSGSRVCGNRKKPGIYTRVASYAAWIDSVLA

Work on `NC(=O)c1nn(CC(=O)N2C[C@H](F)C[C@H]2C(=O)Nc2ccc3ncsc3c2)c2ccc(-c3ccnnc3)cc12` [Compound 50, 1-(2-((2S,4R)-2-(benzo[d]thiazol-6-ylcarbamoyl)-4-fluoropyrrolidin-1-yl)-2-oxoethyl)-5-(pyridazin-4-yl)-1H-indazole-3-carboxamide] yielded an IC50 [1] of over 10 µM.

In the case of `NC(=O)c1nn(CC(=O)N2C[C@H](F)C[C@H]2C(=O)Nc2cccc3c2CN(c2ccccn2)C3)c2ccc(-c3ccnnc3)cc12` [Compound 104, 1-(2-((2S,4R)-4-fluoro-2-(2-(pyridin-2-yl)isoindolin-4-ylcarbamoyl)pyrrolidin-1-yl)-2-oxoethyl)-5-(pyridazin-4-yl)-1H-indazole-3-carboxamide], the IC50 [1] is reported as over 10 µM.

Molecule `CC(=O)c1nn(CC(=O)N2C[C@H](F)C[C@H]2C(=O)Nc2cncc(Br)n2)c2ccc(-c3ccc4nc(C)nn4c3)cc12` [Compound 325, (2S,4R)-1-(2-(3-acetyl-5-(2-methyl-[1,2,4]triazolo[1,5-a]pyridin-6-yl)-1H-indazol-1-yl)acetyl)-N-(6-bromopyrazin-2-yl)-4-fluoropyrrolidine-2-carboxamide] has an IC50 [2] of under 1 µM.

For `CC(=O)c1cn(CC(=O)N2C[C@H](F)C[C@H]2C(=O)Nc2cncc(Br)n2)c2ccc(-c3ccnnc3)cc12` [Compound 127, (2S,4R)-1-(2-(3-acetyl-5-(pyridazin-4-yl)-1H-indol-1-yl)acetyl)-N-(6-bromopyrazin-2-yl)-4-fluoropyrrolidine-2-carboxamide], the IC50 [1] was under 1 µM.

`COc1ncc(-c2ccc3c(c2)c(C(C)=O)nn3CC(=O)N2C[C@H]3C[C@H]3[C@H]2C(=O)Nc2nc(Br)ccc2C2CC2)cn1` [Compound 641, (1R,2S,5S)-3-(2-(3-Acetyl-5-(2-methoxypyrimidin-5-yl)-1H-indazol-1-yl)acetyl)-N-(6-bromo-3-cyclopropylpyridin-2-yl)-3-azabicyclo[3.1.0]hexane-2-carboxamide] gave an IC50 [3] of under 1 µM.

`CC(=O)c1nn(CC(=O)N2C[C@H](F)C[C@H]2C(=O)Nc2cc(Cl)cc(Br)n2)c2ccc(-c3cnc(C)nc3)cc12` [Compound 359, (2S,4R)-1-(2-(3-Acetyl-5-(2-methylpyrimidin-5-yl)-1H-indazol-1-yl)acetyl)-N-(6-bromo-4-chloropyridin-2-yl)-4-fluoropyrrolidine-2-carboxamide] gave an IC50 [4] of under 1 µM.

For `Cc1ncc(-c2ccc3c(c2)c([C@H](C)O)nn3CC(=O)N2[C@@H]3C[C@@H]3C[C@H]2C(=O)Nc2cccc(Br)n2)cn1` [Compound 409, (1R,3S,5R)—N-(6-Bromopyridin-2-yl)-2-(2-(3-((S)-1-hydroxyethyl)-5-(2-methylpyrimidin-5-yl)-1H-indazol-1-yl)acetyl)-2-azabicyclo[3.1.0]hexane-3-carboxamide], the IC50 [4] was under 1 µM.

In the case of `Cc1ncc(-c2ccc3c(c2)c([C@H](C)O)nn3CC(=O)N2C[C@H](F)C[C@H]2C(=O)Nc2cccc(Br)n2)cn1` [Compound 425, (2S,4R)—N-(6-Bromopyridin-2-yl)-4-fluoro-1-(2-(3-((S)-1-hydroxyethyl)-5-(2-methylpyrimidin-5-yl)-1H-indazol-1-yl)acetyl)pyrrolidine-2-carboxamide], the IC50 is reported as 1 to 10 µM.

`NC(=O)c1nn(CC(=O)N2C[C@H](F)C[C@H]2C(=O)Nc2cncc(Cl)n2)c2ccc(-c3ccnnc3)cc12` [Compound 89, 1-(2-((2S,4R)-2-(6-chloropyrazin-2-ylcarbamoyl)-4-fluoropyrrolidin-1-yl)-2-oxoethyl)-5-(pyridazin-4-yl)-1H-indazole-3-carboxamide] was tested, and the IC50 [1] was under 1 µM.

`CC(=O)c1nn(CC(=O)N2C[C@H](F)C[C@H]2C(=O)Nc2ccnc(OCC(F)(F)F)n2)c2ccc(-c3cnc(C)nc3)cc12` [Compound 377, (2S,4R)-1-(2-(3-Acetyl-5-(2-methylpyrimidin-5-yl)-1H-indazol-1-yl)acetyl)-4-fluoro-N-(2-(2,2,2-trifluoroethoxy)pyrimidin-4-yl)pyrrolidine-2-carboxamide] gave an IC50 [4] of under 1 µM.

Molecule `CC(=O)c1nn(CC(=O)N2C[C@H](F)C[C@H]2C(=O)Nc2cccc(Br)n2)c2ccc(-c3cnc(OC4CS(=O)(=O)C4)nc3)cc12` [Compound 591, (2S,4R)-1-(2-(3-Acetyl-5-(2-((1,1-dioxidothietan-3-yl)oxy)pyrimidin-5-yl)-1H-indazol-1-yl)acetyl)-N-(6-bromopyridin-2-yl)-4-fluoropyrrolidine-2-carboxamide] has an IC50 [3] of under 1 µM.

`CC(=O)c1nn(CC(=O)N2C[C@H](F)C[C@H]2C(=O)Nc2cccc(Br)[n+]2[O-])c2ccc(-c3cnc(C)[n+]([O-])c3)cc12` [Compound 744, 5-(3-Acetyl-1-(2-((2S,4R)-2-((6-bromo-1-oxidopyridin-2-yl)carbamoyl)-4-fluoropyrrolidin-1-yl)-2-oxoethyl)-1H-indazol-5-yl)-2-methylpyrimidine 1-oxide] showed an IC50 of 1 to 10 µM.

Molecule `CC(=O)c1nn(CC(=O)N2C[C@H](F)C[C@H]2C(=O)Nc2cccc(Br)n2)c2ccc(-c3cnc(COC(=O)N(C)C)nc3)cc12` [Compound 555, (5-(3-Acetyl-1-(2-((2S,4R)-2-((6-bromopyridin-2-yl)carbamoyl)-4-fluoropyrrolidin-1-yl)-2-oxoethyl)-1H-indazol-5-yl)pyrimidin-2-yl)methyl dimethylcarbamate] has an IC50 [3] of under 1 µM.

Work on `Cc1cc2ncc(-c3cc4c(C(N)=O)nn(CC(=O)N5C[C@H](F)C[C@H]5C(=O)Nc5cccc(OC(F)(F)F)c5F)c4cn3)cn2n1` [Compound 283, 1-(2-((2S,4R)-4-fluoro-2-(2-fluoro-3-(trifluoromethoxy)phenylcarbamoyl)pyrrolidin-1-yl)-2-oxoethyl)-5-(2-methylpyrazolo[1,5-a]pyrimidin-6-yl)-1H-pyrazolo[3,4-c]pyridine-3-carboxamide] yielded an IC50 [2] of under 1 µM.

In the case of `NC(=O)c1nn(CC(=O)N2C[C@H](F)C[C@H]2C(=O)Nc2cccc(OC(F)(F)F)c2F)c2ccc(-c3cncnc3)cc12` [Compound 9, 1-(2-((2S,4R)-4-fluoro-2-(2-fluoro-3-(trifluoromethoxy)phenylcarbamoyl)pyrrolidin-1-yl)-2-oxoethyl)-5-(pyrimidin-5-yl)-1H-indazole-3-carboxamide], the IC50 [1] is reported as under 1 µM.

Molecule `CC(=O)c1nn(CC(=O)N2[C@H](C(=O)Nc3cccc(Br)n3)C[C@@]3(C)C[C@@H]23)c2ccc(-c3cnc(C)nc3)cc12` [Compound 372, (1R,3S,5R)-2-(2-(3-Acetyl-5-(2-methylpyrimidin-5-yl)-1H-indazol-1-yl)acetyl)-N-(6-bromopyridin-2-yl)-5-methyl-2-azabicyclo[3.1.0]hexane-3-carboxamide] has an IC50 [4] of under 1 µM.

With `CC(=O)c1nn(CC(=O)N2C[C@@](F)(CN)C[C@H]2C(=O)Nc2cccc(Br)n2)c2ccc(-c3cnc(C)nc3)cc12` [Compound 395, (2S,4S)-1-(2-(3-Acetyl-5-(2-methylpyrimidin-5-yl)-1H-indazol-1-yl)acetyl)-4-(aminomethyl)-N-(6-bromopyridin-2-yl)-4-fluoropyrrolidine-2-carboxamide] the IC50 [4] was under 1 µM.

Molecule `CC(=O)c1cn(CC(=O)N2C[C@H](F)C[C@H]2C(=O)Nc2cncc(Br)n2)c2ccc(-c3cnc4ccnn4c3)cc12` [Compound 323, (2S,4R)-1-(2-(3-acetyl-5-(pyrazolo[1,5-a]pyrimidin-6-yl)-1H-indol-1-yl)acetyl)-N-(6-bromopyrazin-2-yl)-4-fluoropyrrolidine-2-carboxamide] has an IC50 [2] of under 1 µM.
